From patent publication US20090075941A1, “TREATING NEOPLASMS” (THE UAB RESEARCH FOUNDATION, priority 2006, published 2009) come the findings set out here.

Experiment [1] relates to unprenylated Rap1A in AB12 cells. The experiment is described as follows: Western blot, accumulation of unprenylated Rap1A (Example 1). It counts as cell-based, mouse. On the procedure:
(§1) Western blotting. AB12 and AC29 cells were plated on 6-well plates in normal culture medium until near confluency. The cells were then rinsed with sterile PBS and cultured for further 24 h in serum-free culture medium, in the presence or absence of 2×10^−4-10^−5 M risedronate, zoledronate or PBS control, with or without 25 μM geranylgeraniol, or the same volume of ethanol as a vehicle control. Culture medium was discarded and the cells were harvested in lysis buffer (20 mM Tris pH 7.4, 150 mM NaCl, 1 mM EDTA, 1 mM EGTA, 1% Triton, 2.5 mM sodium pyrophosphate, 1 mM β-glycerolphosphate, 1 mM Na3VO4, 1 μg/ml leupeptin (Cell Signaling Technology, Inc.; Danvers, Mass.)) and clarified by centrifugation. After boiling the supernatants in reducing SDS sample buffer, equal amounts of protein (˜50 μg) were loaded per lane and the samples were electrophoresed on 10% polyacrylamide SDS gel and transferred to a nitrocellulose membrane. Unprenylated Rap1A was detected with the antibody SC-1482 and total Rap1 (both prenylated and unprenylated forms of both Rap1A and Rap1B) was detected with the antibody SC-65 (Santa Cruz Biotechnology, Inc.; Santa Cruz, Calif.), according to the manufacturer's recommendations. The phosphorylation status of p38 was studied with anti-phospho-p38 and anti-total p38 antibodies (Cell Signaling Technology, Inc.), as recommended by the manufacturer. The protein bands were visualized by chemiluminescence using SuperSignal West Pico ECL kit (Pierce; Rockford, Ill.).
A general note: In western blotting, separated proteins are transferred to a membrane and probed.

The test system of experiment [2] is unprenylated Rap1A in AC29 cells. The description is as above. It counts as cell-based, mouse. The method, then:
as §1

In experiment [3] the test system is AB12 cells. The experiment is described as follows: In vitro growth assay, BrdU incorporation. It is filed as cell-based, mouse. Particulars: with p38 inhibitor SB202190 10^−5 M vs inactive control compound, 5 days. The method, then: (§2) In vitro growth assay. […] Briefly, […] were plated onto 96-well plates in 100 μl of normal culture medium. The cells were then treated with the indicated agents for various times. BrdU was added to the wells for the final 24 h and incorporated BrdU was detected with sequential additions of monoclonal mouse anti-BrdU antibody and HRP-conjugated anti-mouse antibody. After addition of the substrate for HRP, intensity of the colored reaction product, which is proportional to the amount of BrdU incorporated into the cells, was read with spectrophotometer at […].
On the technique in general: Uptake of a labelled nucleoside into DNA is a usual measure of proliferation.

The next experiment concerns AC29 cells. The experiment is described as follows: In vitro growth assay, BrdU incorporation. It counts as cell-based, mouse. Particulars: with p38 inhibitor SB202190 10^−5 M vs inactive control compound, 5 days. The method, then:
as §2

Experiment [4] deals with AB12 cells. The experiment is described as follows: Subcutaneous mouse mesothelioma model, tumor volume. It counts as in vivo. Particulars: AB12 s.c. in BALB/c mice; risedronate 15 mg/kg (P<0.02), zoledronate 0.5 mg/kg (P<0.003); every six days, 4 treatments from day 10. The method, then: In vivo mesothelioma models. Female BALB/c mice, four to eight weeks of age, were obtained from the National Cancer Institute-Frederick Cancer Research Facility (Frederick, Md.) and were housed in the Pathogen-Free Rodent Shared Facility (Comprehensive Cancer Center, University of Alabama at Birmingham). All animal procedures were performed, in accordance with recommendations for the proper care and use of laboratory animals and were approved by the local IACUC. Subcutaneous (s.c.) and intraperitoneal (i.p.) mouse mesothelioma models were evaluated. In the s.c. model, 3×10^6 AB12 cells were first injected s.c. into cohorts of BALB/c mice. Treatments with i.p. BPs or vehicle were started when tumors became palpable on day 10 and continued every six days for a total of 4 treatments. Tumor size was measured bidimensionally with calipers every two to three days and tumor volume calculated by the formula (length×width^2)÷2. Mice were euthanized before tumors reached the size of 2000 mm^3. In the i.p. model, AC29 or AB12 cells (5×10^5/0.5 ml) were injected i.p, into cohorts of 10-12 BALB/c using a 26-gauge needle. Treatment was initiated 6 days after tumor inoculation and the mice were followed for survival. In the i.p. model risedronate (15 mg/kg), zoledronate (0.5 mg/kg) or PBS were administered i.p. three times a week for two weeks.

In a further experiment the test system is MDA-MB-231 cells. The experiment is described as follows: Cell viability, MTS-assay. It counts as cell-based, human. The method, then:
(§3) Cell viability assays. Cells were plated on 96-well plates at the density of 1×10^3 cells in 100 μl per well in normal culture medium, with or without of the indicated concentrations of the various bisphosphonate combinations and or 1 mM CaCl2, 1 mM EGTA or vehicle and cultured for 48 h. Cell viability was assessed with 3-(4,5-dimethylthiazol-2-yl)-5-(3-carboxy tetrazolium, inner salt (MTS)-assays (CellTiter Aqueous One 96 from Promega; Madison, Wis.) according to the manufacturer's instructions. For each treatment, a PBS-control group was run simultaneously on the same plate. The results for each treatment were calculated as % of the corresponding PBS-group.
Background: Tetrazolium dyes change colour on reduction, which living cells bring about.

A further experiment deals with AB-12 cells. The experiment is described as follows: Cell viability, MTS-assay. It is filed as cell-based, mouse. On the procedure:
as §3

Another experiment deals with J774 cells. Briefly: Cell viability, MTS-assay. It counts as cell-based. On the procedure:
as §3

The mark [5] stands for this setting: 1 mM CaCl2, N-BP 10^−4 M or p-BP 10^−3 M.
The mark [6] stands for this setting: N-BP 10^−4 M + clodronate 10^−3 M.
Setting [7] is: N-BP 10^−4 M + etidronate 10^−3 M.

For `O=P(O)(O)C(O)(Cc1cccnc1)P(=O)(O)O` [risedronate], the “accumulation of unprenylated Rap1A” value is on record as “dose-dependent accumulation” in experiment [1] (24 h, 2×10^−4-2×10^−6 M) and “dose-dependent accumulation” in experiment [2] (24 h, 2×10^−4-2×10^−6 M). Besides, the “reversal of BP-induced accumulation of unprenylated Rap1A by geranylgeraniol” value in experiment [1] (with 25 μM geranylgeraniol) and in experiment [2] (with 25 μM geranylgeraniol) was “almost completely reversed” each time. Moreover, the “BP-induced growth inhibition on inhibition of p38” value with AB12 cells [3] and in the experiment with AC29 cells was “augmented” throughout. Moreover, the subcutaneous tumor growth result in the experiment with AB12 cells [4] was “inhibited subcutaneous tumor growth”. The “effect of added Ca2+ on the bisphosphonate's growth inhibitory effect” value with MDA-MB-231 cells (setting [5]) and in the experiment with AB-12 cells (setting [5]) was “enhanced” throughout. The “effect of excess clodronate on the viability change induced by the nitrogen-containing bisphosphonate” value is given as “did not interfere” in the experiment on MDA-MB-231 cells (setting [6]); “decreased slightly, but significantly cell viability” in the experiment on AB-12 cells (setting [6]); “significantly reversed” in the experiment with J774 cells (setting [6]). Moreover, the entries for the “effect of excess etidronate on the viability change induced by the nitrogen-containing bisphosphonate” value with MDA-MB-231 cells (setting [7]), with AB-12 cells (setting [7]) and in the experiment with J774 cells (setting [7]) were “increased”, “decreased cell viability” and “reversed”, respectively. The “effect of added EGTA on the bisphosphonate's growth inhibitory effect” value is recorded as “enhanced” in the experiment with AB-12 cells (1 mM EGTA, N-BP 10^−4 M) and “reversed” in the experiment with J774 cells (1 mM EGTA, N-BP 10^−4 M or clodronate 10^−3 M). Besides, the cell viability entry in the experiment with J774 cells (10^−4 M) is listed as “significantly decreased cellular viability”.
